# Experimental data published in ChEMBL document CHEMBL4373723 (J Med Chem, 2019).
# The source made the active and inactive calls. The calls are words filed in the database; no cut-off is given here. Bridge positions count the residues as written; N and C are the ends. Peptide text beside a SMILES is read from it. I, II: the chains in the order shown.
# Experiments:
# Frizzled-7 [1] = target: T1, Frizzled-7 (Homo sapiens, UniProt O75084); settings: CHO
# Description: Binding affinity to recombinant human Frizzled-7 (Gln33 to Leu185 residues)/human IgG1 chimeric protein expressed in CHO cells assessed as association rate constant by SPR assay
# Frizzled-7 [2] = target: T1, Frizzled-7; type: cell-based; settings: cho
# Frizzled-7 [3] = target: T1, Frizzled-7; test: biochemical; type: cell-based, CHO
Structure (SMILES),Ka (Frizzled-7 [1]),Kd (Frizzled-7 [2]),"Kd (Frizzled-7 [3]; cho, read-out: Kd)",Kd (Frizzled-7 [3]; cho),Kd (Frizzled-7 [3]; read-out: Kd)
CSCC[C@H](NC(=O)[C@@H](CC1CCCC1)NC(=O)[C@H](Cc1cnc[nH]1)NC(=O)[C@H](CSSC[C@H](NC(=O)[C@H](Cc1c[nH]c2ccccc12)NC(=O)[C@H](Cc1ccccc1)NC(=O)[C@H](CCC(=O)O)NC(=O)[C@H](CC(C)C)NC(=O)[C@H](CC(=O)O)NC(=O)[C@H](CC(=O)O)NC(=O)[C@H](CO)NC(C)=O)C(=O)N[C@@H](Cc1cnc[nH]1)C(=O)N[C@H](CC1CCCC1)C(=O)N[C@@H](CCSC)C(=O)N[C@@H](Cc1ccc(O)cc1)C(N)=O)NC(=O)[C@H](Cc1c[nH]c2ccccc12)NC(=O)[C@H](Cc1ccccc1)NC(=O)[C@H](CCC(=O)O)NC(=O)[C@H](CC(C)C)NC(=O)[C@H](CC(=O)O)NC(=O)[C@H](CC(=O)O)NC(=O)[C@H](CO)NC(C)=O)C(=O)N[C@@H](Cc1ccc(O)cc1)C(N)=O,30.4 ×10⁵ /M/s,44.1 ×10⁻³ /s,14500 pM,,
CSCC[C@H](NC(=O)[C@@H](CC1CC1)NC(=O)[C@H](Cc1cnc[nH]1)NC(=O)[C@H](CSSC[C@H](NC(=O)[C@H](Cc1c[nH]c2ccccc12)NC(=O)[C@H](Cc1ccccc1)NC(=O)[C@H](CCC(=O)O)NC(=O)[C@H](CC(C)C)NC(=O)[C@H](CC(=O)O)NC(=O)[C@H](CC(=O)O)NC(=O)[C@H](CO)NC(C)=O)C(=O)N[C@@H](Cc1cnc[nH]1)C(=O)N[C@H](CC1CC1)C(=O)N[C@@H](CCSC)C(=O)N[C@@H](Cc1ccc(O)cc1)C(N)=O)NC(=O)[C@H](Cc1c[nH]c2ccccc12)NC(=O)[C@H](Cc1ccccc1)NC(=O)[C@H](CCC(=O)O)NC(=O)[C@H](CC(C)C)NC(=O)[C@H](CC(=O)O)NC(=O)[C@H](CC(=O)O)NC(=O)[C@H](CO)NC(C)=O)C(=O)N[C@@H](Cc1ccc(O)cc1)C(N)=O,80.4 ×10⁵ /M/s,1.26 ×10⁻³ /s,160 pM,,
CSCC[C@H](NC(=O)[C@@H](CC1CCC1)NC(=O)[C@H](Cc1cnc[nH]1)NC(=O)[C@H](CSSC[C@H](NC(=O)[C@H](Cc1c[nH]c2ccccc12)NC(=O)[C@H](Cc1ccccc1)NC(=O)[C@H](CCC(=O)O)NC(=O)[C@H](CC(C)C)NC(=O)[C@H](CC(=O)O)NC(=O)[C@H](CC(=O)O)NC(=O)[C@H](CO)NC(C)=O)C(=O)N[C@@H](Cc1cnc[nH]1)C(=O)N[C@H](CC1CCC1)C(=O)N[C@@H](CCSC)C(=O)N[C@@H](Cc1ccc(O)cc1)C(N)=O)NC(=O)[C@H](Cc1c[nH]c2ccccc12)NC(=O)[C@H](Cc1ccccc1)NC(=O)[C@H](CCC(=O)O)NC(=O)[C@H](CC(C)C)NC(=O)[C@H](CC(=O)O)NC(=O)[C@H](CC(=O)O)NC(=O)[C@H](CO)NC(C)=O)C(=O)N[C@@H](Cc1ccc(O)cc1)C(N)=O,53 ×10⁵ /M/s,2.13 ×10⁻³ /s,400 pM,,
CSCC[C@H](NC(=O)[C@@H](CC(C)(C)C)NC(=O)[C@H](Cc1cnc[nH]1)NC(=O)[C@H](CSSC[C@H](NC(=O)[C@H](Cc1c[nH]c2ccccc12)NC(=O)[C@H](Cc1ccccc1)NC(=O)[C@H](CCC(=O)O)NC(=O)[C@H](CC(C)C)NC(=O)[C@H](CC(=O)O)NC(=O)[C@H](CC(=O)O)NC(=O)[C@H](CO)NC(C)=O)C(=O)N[C@@H](Cc1cnc[nH]1)C(=O)N[C@H](CC(C)(C)C)C(=O)N[C@@H](CCSC)C(=O)N[C@@H](Cc1ccc(O)cc1)C(N)=O)NC(=O)[C@H](Cc1c[nH]c2ccccc12)NC(=O)[C@H](Cc1ccccc1)NC(=O)[C@H](CCC(=O)O)NC(=O)[C@H](CC(C)C)NC(=O)[C@H](CC(=O)O)NC(=O)[C@H](CC(=O)O)NC(=O)[C@H](CO)NC(C)=O)C(=O)N[C@@H](Cc1ccc(O)cc1)C(N)=O,68.8 ×10⁵ /M/s,2.16 ×10⁻³ /s,320 pM,,
CSCC[C@H](NC(=O)[C@@H](NC(=O)[C@H](Cc1cnc[nH]1)NC(=O)[C@H](CO)NC(=O)[C@H](Cc1c[nH]c2ccccc12)NC(=O)[C@H](Cc1ccccc1)NC(=O)[C@H](CCC(=O)O)NC(=O)[C@H](CC(C)C)NC(=O)[C@H](CC(=O)O)NC(=O)[C@H](CC(=O)O)NC(=O)[C@H](CO)NC(=O)[C@@H]1CCCN1C(=O)[C@H](CC(C)C)NC(C)=O)C(C)C)C(=O)N[C@@H](Cc1ccc(O)cc1)C(N)=O (Ac-LPSDDLEFWSHVMY-NH2),inactive,Not Active,,Not Active,
CSCC[C@H](NC(=O)[C@@H](NC(=O)[C@H](Cc1cnc[nH]1)NC(=O)[C@H](CSSC[C@H](NC(=O)[C@H](Cc1c[nH]c2ccccc12)NC(=O)[C@H](Cc1ccccc1)NC(=O)[C@H](CCC(=O)O)NC(=O)[C@H](Cc1ccccc1)NC(=O)[C@H](CC(=O)O)NC(=O)[C@H](CC(=O)O)NC(=O)[C@H](CO)NC(C)=O)C(=O)N[C@@H](Cc1cnc[nH]1)C(=O)N[C@H](C(=O)N[C@@H](CCSC)C(=O)N[C@@H](Cc1ccc(O)cc1)C(N)=O)C(C)C)NC(=O)[C@H](Cc1c[nH]c2ccccc12)NC(=O)[C@H](Cc1ccccc1)NC(=O)[C@H](CCC(=O)O)NC(=O)[C@H](Cc1ccccc1)NC(=O)[C@H](CC(=O)O)NC(=O)[C@H](CC(=O)O)NC(=O)[C@H](CO)NC(C)=O)C(C)C)C(=O)N[C@@H](Cc1ccc(O)cc1)C(N)=O (I: Ac-SDDFEFWCHVMY-NH2 / II: Ac-SDDFEFWCHVMY-NH2; disulfide I:8-II:8),5.3 ×10⁵ /M/s,62.8 ×10⁻³ /s,,,122000 pM
CC[C@H](C)[C@H](NC(=O)[C@H](Cc1cnc[nH]1)NC(=O)[C@H](CSSC[C@H](NC(=O)[C@H](Cc1c[nH]c2ccccc12)NC(=O)[C@H](Cc1ccccc1)NC(=O)[C@H](CCC(=O)O)NC(=O)[C@H](CC(C)C)NC(=O)[C@H](CC(=O)O)NC(=O)[C@H](CC(=O)O)NC(=O)[C@H](CO)NC(C)=O)C(=O)N[C@@H](Cc1cnc[nH]1)C(=O)N[C@H](C(=O)N[C@@H](CCSC)C(=O)N[C@@H](Cc1ccc(O)cc1)C(N)=O)[C@@H](C)CC)NC(=O)[C@H](Cc1c[nH]c2ccccc12)NC(=O)[C@H](Cc1ccccc1)NC(=O)[C@H](CCC(=O)O)NC(=O)[C@H](CC(C)C)NC(=O)[C@H](CC(=O)O)NC(=O)[C@H](CC(=O)O)NC(=O)[C@H](CO)NC(C)=O)C(=O)N[C@@H](CCSC)C(=O)N[C@@H](Cc1ccc(O)cc1)C(N)=O (I: Ac-SDDLEFWCHIMY-NH2 / II: Ac-SDDLEFWCHIMY-NH2; disulfide I:8-II:8),55.1 ×10⁵ /M/s,0.96 ×10⁻³ /s,,,180 pM
CSCC[C@H](NC(=O)[C@H](CC(C)C)NC(=O)[C@H](Cc1cnc[nH]1)NC(=O)[C@H](CSSC[C@H](NC(=O)[C@H](Cc1c[nH]c2ccccc12)NC(=O)[C@H](Cc1ccccc1)NC(=O)[C@H](CCC(=O)O)NC(=O)[C@H](CC(C)C)NC(=O)[C@H](CC(=O)O)NC(=O)[C@H](CC(=O)O)NC(=O)[C@H](CO)NC(C)=O)C(=O)N[C@@H](Cc1cnc[nH]1)C(=O)N[C@@H](CC(C)C)C(=O)N[C@@H](CCSC)C(=O)N[C@@H](Cc1ccc(O)cc1)C(N)=O)NC(=O)[C@H](Cc1c[nH]c2ccccc12)NC(=O)[C@H](Cc1ccccc1)NC(=O)[C@H](CCC(=O)O)NC(=O)[C@H](CC(C)C)NC(=O)[C@H](CC(=O)O)NC(=O)[C@H](CC(=O)O)NC(=O)[C@H](CO)NC(C)=O)C(=O)N[C@@H](Cc1ccc(O)cc1)C(N)=O (I: Ac-SDDLEFWCHLMY-NH2 / II: Ac-SDDLEFWCHLMY-NH2; disulfide I:8-II:8),67.2 ×10⁵ /M/s,1.9 ×10⁻³ /s,,,280 pM
